These results are taken from patent US8039603B2, “Nucleic acid and corresponding protein entitled 121P1F1 useful in treatment and detection of cancer” (Agensys, Inc., priority 2001, dated 2011).

The test system of this assay is LAPC-4 cells. As to the kind of experiment: Androgen regulation of 121P1F1 in vitro (Northern blot). Type of assay: cell-based, human. The conditions noted are these: LAPC-4 cells in charcoal-stripped medium. The protocol:
FIG. 22. Androgen regulation of 121P1F1 in vitro. […] cells were grown in charcoal-stripped medium and stimulated with the synthetic androgen mibolerone, for either 14 or 24 hours. Northern blot was performed with 10 μg of total RNA for each sample, and probed with the 121P1F1 SSH fragment. A picture of the ethidium-bromide staining of the RNA gel is also presented (lowest panel). Hybridization of the same northern blot with the androgen-dependent gene TMPRSS2 confirms the quality of the androgen deprivation.
Since 121P1F1 was derived from a […] LAPC-9 AD (28 days post-castration) subtraction, an assay was performed for androgen regulation of 121P1F1 (FIG. 22). LAPC-4 cells were grown in charcoal-stripped medium and stimulated with the synthetic androgen mibolerone, for either 14 or 24 hours. It was shown that the expression of 121P1F1 went down in absence of normal serum, and is modulated in presence of mibolerone, 24 hours after stimulation. The experimental samples were confirmed by testing for the expression of the androgen-regulated prostate cancer gene TMPRSS2.

In the case of `C[C@@H]1CC2=CC(=O)CC[C@@H]2[C@H]2CC[C@@]3(C)[C@@H](CC[C@]3(C)O)[C@@H]21` [mibolerone], for the setting “24 hours after stimulation”, the “expression of 121P1F1” value was “modulated”. Further, the TMPRSS2 expression result (at 14 and 24 hours) was “induced”.
